This is an account of results in article PMC12654037, “Norditerpene Natural Products from Subterranean Fungi with Anti-Parasitic Activity” (Microorganisms, 2025).

One series has as its system C. parvum. The experiment in a line: C. parvum growth inhibition assay (Cp-NLuc-infected HCT-8 cells). The series is classed as cell-based, Cryptosporidium parvum. The conditions noted are these: for EC50: Cryptosporidium parvum, HCT-8, intracellular nanoluciferase-expressing C. parvum in vitro, Figure 1 table, read-out: EC50 (μM), C. parvum; for parasite inhibition in pilot screen: CpNLuc-infected HCT-8 cells, initial dose 5 µg/mL. As for the experimental part:
C. parvum growth inhibition assays: The in vitro growth inhibition assay of C. parvum has been previously described. Briefly, clear-bottom, white-sided 96 well plates were seeded with HCT-8 cells. Once the cells reached between 50% and 75% confluency, they were infected with Cp-NLuc oocysts (10,000/well) in complete media containing 0.6% taurocholate. At 24 h post-infection (hpi), the infected cells were treated with compounds at various concentrations. DMSO was used as a vehicle control in parallel. Parasite growth was determined at 72 hpi by measuring relative luminescence units (RLUs) using Promega Nano-Glo substrate (Promega, Madison, WI, USA) and a SpectraMax® L Microplate Reader (Molecular Devices, San Jose, CA, USA). The percent inhibition of parasite growth was calculated as [(RLUDMSO − RLUcompound)/RLUDMSO] × 100.

The test system of the next series is HCT-8 cells. The experiment in a line: HCT-8 cytotoxicity assay. It is filed as cell-based. As for the experimental part:
(§1) HCT-8 and HFF cytotoxicity assays: Cytotoxicity of the compounds was determined against both confluent (the conditions of the infection assays) and growing HCT-8 and HFF host cells, as previously described. Cells were seeded into white-sided, clear-bottom 96-well plates and grown to either 40% or 100% confluency. Compounds were added to cells at various concentrations up to 100 µM in a final DMSO concentration of 0.5%. DMSO was run in parallel as a vehicle control. After 48 h, the viability of the cells was determined by either quantification of cellular ATP (Cell-Titer Glo cell viability assay; Promega, Madison WI, USA) or by MTT assay. Viability was determined 24 h after compound addition to HFF cells or 48 h after compound addition to HCT-8 cells or HepG2 cells. The percent cell growth was then calculated with the following formula: % Cell Growth = [RLUcompound/RLUDMSO] × 100. Samples were run in triplicate with two to three biological replicates.

Another series deals with HFF cells. The experiment in a line: HFF cytotoxicity assay. It is filed as cell-based. Particulars: confluent. How it is done: as §1
The subject of a further series is HepG2 human hepatocytes. The experiment in a line: HepG2 cytotoxicity assay (MTS). Particulars: 48 h, mean +/- SD. The series is classed as cell-based. As for the experimental part:
HepG2 cytotoxicity assay: Mammalian cell cytotoxicity was assessed in HepG2 human hepatocytes using an MTS 3-(4,5-dimethylthiazol-2-yl)-5-(3-carboxymethoxyphenyl)-2-(4-sulfophenyl)-2H-tetrazolium)-based cytotoxicity assay. For cytotoxicity testing, ∼2250 cells were seeded into each well of a 384-well microtiter plate and incubated for 24 h. Serial dilutions of the compounds were added in triplicate starting at 25 μM. Cells were further incubated for an additional 48 h at 37 °C in an atmosphere containing 5% CO2. Zero-growth control wells were incubated with 5% Triton X-100 for 5 min prior to MTS addition. Following the addition of MTS to all wells, the plates were incubated for an additional 4 h under the same environmental conditions before taking absorbance measurements. Absorbance values were recorded at 490 nm using a Synergy Neo2 multimode reader (BioTek), and values were normalized based on Triton X-100-lysed and no treatment controls. Samples were run in triplicate in each assay, and the experiments were repeated three times.

In the next series the test system is HuF fibroblast cell line. The conditions noted are these: sub-confluent; ref Rusman et al. 2020 [25]; cited from earlier work.
The next series concerns P. falciparum line Dd2. The experiment in a line: Plasmodium falciparum growth inhibition assay (SYBR Green I), Dd2. Particulars: for EC50: Plasmodium falciparum, DD2, 72 h, read-out: EC50 Dd2 (M).
The next series relates to P. falciparum 3D7. Kind of series: Plasmodium falciparum growth inhibition assay (SYBR Green I), 3D7. Particulars: 3D7, 72 h, read-out: EC50 3D7(M).
The test system of another series is C. parvum sporozoites. Kind of series: C. parvum invasion inhibition assay. It is filed as cell-based, Cryptosporidium parvum. Particulars: 100 nM, 3 h infection. How it is done:
C. parvum excystation and invasion assays: Oocyst excystation rates in the presence of compounds were determined as previously described. The C. parvum invasion inhibition assays were conducted in two formats. In the first format, described previously, HCT-8 cells were seeded on glass slides (CELLTREAT Scientific Product, Pepperell, MA, USA) and allowed to grow to confluence. Oidiolactone A was added to the cells for one hour. TrtE and DMSO were run in parallel as positive and negative controls, respectively. The cell monolayers were then infected with 1.2 × 10^6 wild-type C. parvum oocysts. After 3 h of incubation at 37 °C, the slides were washed five times with 111 mM D-galactose, fixed with 4% paraformaldehyde, and permeabilized with 0.25% Triton-X. C. parvum sporozoites were detected with rabbit anti-gp40 [39] and Alexa Fluor 594 goat anti-rabbit antibodies. The HCT-8 cell nuclei were stained with 0.09 mM Hoechst. Slides were coded to enable unbiased counting, and sporozoites from at least 10 randomly selected fields were counted in each sample at 100× magnification (Zeiss® Axioscope 5). The percentage of invaded parasites was determined using the following equation: % Invaded parasites = [parasitescompound/parasitesDMSO] × 100. This experiment was run in duplicate with two biological replicates. […]

Procedure for P. falciparum 3D7: (§2) Plasmodium falciparum growth inhibition assay: Antiplasmodial EC50 results were determined using a fluorescence-based SYBR Green I assay performed using asynchronous cultures [30, 35]. […] Plates were subsequently frozen at −80 °C to facilitate lysis. […] Relative fluorescence units (RFUs) were normalized based on chloroquine-treated and no treatment controls. Serial dilutions of compounds were prepared in RPMI with final assay conditions of ≤0.2% DMSO. Each assay was conducted in triplicate with three biological replicates.
Procedure for P. falciparum line Dd2: as §2

As to `C[C@@]12CCC[C@]3(C)C4=CC(=O)OC[C@]45O[C@@H]5[C@@H](OC1=O)[C@@H]23` [compound 2, oidiolactone C], the EC50 in the series on C. parvum turned out to be 1.8 µM. Moreover, in the series on HCT-8 cells, the “TC50 HCT-8 (confluent)” value is on record as over 30 µM and the “TC50 HCT-8 (sub-confluent)” value is given as 1.35 ± 0.2 µM. For the same molecule, in the series on HFF cells, the “TC50 HFF (confluent)” value was over 30 µM. In the series on HepG2 human hepatocytes, the TC50 HepG2 worked out at 17.1 ± 0.821 µM. The “TC50 HuF (sub-confluent)” value with HuF fibroblast cell line was over 30 µM. Also, in the series with P. falciparum line Dd2, the “SI: selectivity index=EC50 HepG2/ EC50 compound” value worked out at 7 and the EC50 turned out to be 2.49e-06 ± 1.98e-07 M. Also, the EC50 in the series with P. falciparum 3D7 was 2.78e-06 ± 3.97e-07 M.
With `C[C@@]12CCC[C@]3(C)C4=CC(=O)O[C@@H](O)[C@]45O[C@@H]5[C@@H](OC1=O)[C@@H]23` [compound 3, oidiolactone D], the TC50 HepG2 in the series on HepG2 human hepatocytes was over 25 µM. Besides, in the series with HuF fibroblast cell line, the “TC50 HuF (sub-confluent)” value is listed as over 30 µM. Further, the EC50 in the series with P. falciparum line Dd2 and with P. falciparum 3D7 was over 5e-06 M throughout.
In the case of `C[C@]12C(=O)O[C@@H]3[C@H]4O[C@@]45C(=CC(=O)O[C@H]5O)[C@@](C)(CC[C@H]1O)[C@@H]32` [compound 4, oidiolactone G], the “parasite inhibition in pilot screen” value with C. parvum is recorded as “eliminates activity”. The TC50 HepG2 in the series with HepG2 human hepatocytes was over 25 µM. In the series on HuF fibroblast cell line, the “TC50 HuF (sub-confluent)” value is reported as over 30 µM. The EC50 in the series with P. falciparum line Dd2 and with P. falciparum 3D7 was over 5e-06 M in each case.
On to `COC(=O)/C=C1/[C@]2(C(OC)OC)O[C@@H]2[C@H]2OC(=O)[C@@]3(C)CCC[C@@]1(C)[C@@H]23` [compound 5, oidiolactone H], for which, in the series with C. parvum, the “parasite inhibition in pilot screen” value is “abolishes inhibitory activity”. In addition, the “TC50 HuF (sub-confluent)” value with HuF fibroblast cell line was over 30 µM.
For `COC(=O)/C=C1/[C@]2(C=O)O[C@@H]2[C@H]2OC(=O)[C@@]3(C)CCC[C@@]1(C)[C@@H]23` [compound 6, oidiolactone I], the EC50 is 7.8 µM with C. parvum, over 4.99e-06 M in the series with P. falciparum line Dd2 and 3.65e-06 ± 5.96e-07 M in the series with P. falciparum 3D7. In addition, the “TC50 HCT-8 (confluent)” value with HCT-8 cells is given as over 30 µM. For the same molecule, in the series with HCT-8 cells, the “TC50 HCT-8 (sub-confluent)” value worked out at 4.8 ± 0.7 µM. Moreover, the “TC50 HFF (confluent)” value in the series with HFF cells was over 30 µM. Moreover, the TC50 HepG2 in the series on HepG2 human hepatocytes was over 25 µM. In addition, the “TC50 HuF (sub-confluent)” value in the series on HuF fibroblast cell line is given as over 30 µM.
Consider `CO[C@H]1OC(=O)C=C2C1=C[C@H]1OC(=O)[C@@]3(C)[C@H](O)CC[C@@]2(C)[C@@H]13` [compound 8, oidiolactone J], for which the EC50 in the series on C. parvum is 7.8 µM; in the series with P. falciparum line Dd2, over 5e-06 M; with P. falciparum 3D7 it was over 5e-06 M. The “TC50 HCT-8 (confluent)” value with HCT-8 cells is recorded as over 30 µM. Besides, the “TC50 HCT-8 (sub-confluent)” value in the series with HCT-8 cells is given as over 30 µM. Moreover, the “TC50 HFF (confluent)” value with HFF cells is recorded as over 30 µM. For the same molecule, in the series with HepG2 human hepatocytes, the TC50 HepG2 was over 25 µM. Further, the “TC50 HuF (sub-confluent)” value in the series on HuF fibroblast cell line is over 30 µM.
On to `C[C@]12C(=O)O[C@@H]3C=C4C(=CC(=O)O[C@@H]4O)[C@@](C)(CC[C@H]1O)[C@@H]32` [compound 9, oidiolactone K], for which the TC50 HepG2 with HepG2 human hepatocytes was over 25 µM. The “TC50 HuF (sub-confluent)” value in the series on HuF fibroblast cell line is listed as over 30 µM. The EC50 with P. falciparum line Dd2 and with P. falciparum 3D7 was over 5e-06 M throughout.
Consider `C[C@@]12CCC[C@]3(C)C4=CC(=O)O[C@H](O)C4=C[C@@H](OC1=O)[C@@H]23` [compound 10, yukonin], for which the EC50 in the series on C. parvum is 1.09 µM. For the same molecule, in the series on HCT-8 cells, the “TC50 HCT-8 (confluent)” value is over 30 µM and the “TC50 HCT-8 (sub-confluent)” value amounted to 2.5 ± 0.3 µM. For the same molecule, the “TC50 HFF (confluent)” value with HFF cells is recorded as over 30 µM.
Turning to `C[C@]1(C(=O)O)CCC[C@]2(C)C3=CC(=O)OCC3=CC[C@@H]12` [compound 11, oidiodendronic acid], the concentration giving a half-maximal response (EC50) is 9.1 µM in the series on C. parvum, over 5e-06 M in the series with P. falciparum line Dd2 and over 5e-06 M with P. falciparum 3D7. Also, the “TC50 HCT-8 (confluent)” value in the series on HCT-8 cells is over 30 µM. In addition, the “TC50 HCT-8 (sub-confluent)” value in the series with HCT-8 cells amounted to 19.7 ± 4.8 µM. The “TC50 HFF (confluent)” value with HFF cells is over 30 µM. Also, the TC50 HepG2 in the series on HepG2 human hepatocytes is over 25 µM. Further, in the series on HuF fibroblast cell line, the “TC50 HuF (sub-confluent)” value is reported as over 30 µM.
Turning to `C[C@@]12CCC[C@]3(C)c4cc(=O)occ4[C@H](O)[C@@H](OC1=O)[C@@H]23` [compound 12, oidiolactone L], the “parasite inhibition in pilot screen” value with C. parvum was “inactive”. Moreover, the TC50 HepG2 in the series on HepG2 human hepatocytes was over 25 µM. The “TC50 HuF (sub-confluent)” value with HuF fibroblast cell line was over 30 µM. In addition, the EC50 in the series with P. falciparum line Dd2 and in the series on P. falciparum 3D7 was over 5e-06 M in each case.
`C[C@]12CCC[C@](C)(C(=O)O)[C@@H]1C=C[C@]1(O)COC(=O)C[C@H]21` [compound 13, oidiolactone E]: the TC50 HepG2 in the series on HepG2 human hepatocytes was over 25 µM. For the same molecule, the EC50 in the series with P. falciparum line Dd2 and in the series with P. falciparum 3D7 was over 5e-06 M throughout.
In the case of `C=C1C(O)C[C@@H]2[C@](C)(CCC[C@]2(C)C(=O)O)[C@H]1CC(=O)O` (stereo partly drawn) [compound 14, LL-Z1271β], the TC50 HepG2 in the series on HepG2 human hepatocytes was over 25 µM. Further, the “TC50 HuF (sub-confluent)” value in the series with HuF fibroblast cell line is over 30 µM. Besides, the EC50 in the series on P. falciparum line Dd2 and in the series with P. falciparum 3D7 was over 5e-06 M throughout.
In the case of `C[C@@H]1CCC2CC(=O)C[C@@H](O)CC/C=C/C=C\CC[C@H](C)OC(=O)[C@@H]3O[B-]45O[C@@H](C(=O)O[C@@H](C)CC/C=C\C=C\CC[C@H](O)CC(=O)CC6CC[C@@H](C)[C@]3(O6)O4)[C@@]1(O2)O5` [tartrolon E, reference compound], in the series with C. parvum sporozoites, the “effect on parasite invasion (positive control)” value is “completely inhibited parasite invasion”.

For orientation: EC50 means the concentration needed to bring the measured effect to its halfway point.
